Assay results taken from PubChem BioAssay AID2619 (Sanford-Burnham Center for Chemical Genomics, 2010).

Test system: MDA-MB-435 TRAIL sensitization, ATPlite luminescence, 24 h
Assay: PubChem AID 2619

## CSc1nc(-c2ccc(C)cc2)nc(C(Cl)Cl)n1
At 10 µM (top of the series)
  cytotoxicity with TRAIL: 82%
Compound alone without TRAIL, at 10 µM, stronger effect = higher value
  cytotoxicity: 1%
